Values after ≈ are worked out from the molar mass of the structure shown.
Tests used:
[1] = tested on: Bordetella bronchiseptica; test: Antibacterial activity against Bordetella bronchiseptica ATCC 4617 after 18 hrs by CLSI disc diffusion method; format: functional; settings: ATCC 4617, 18 h
[2] = tested on: Staphylococcus aureus; test: Antibacterial activity against Staphylococcus aureus 585 after 18 hrs by CLSI disc diffusion method; format: functional; settings: Staphylococcus aureus, 585, 18 h
[3] = Selectivity index, ratio of IC50 for human HaCaT cells to MIC for Proteus vulgaris NCTC 4635; format: toxicity; settings: read-out: Selectivity Index
[4] = tested on: Staphylococcus aureus; test: Antibacterial activity against Staphylococcus aureus 496 after 18 hrs by CLSI disc diffusion method; format: functional; settings: Staphylococcus aureus, 496, 18 h
[5] = tested on: HaCaT; test: Cytotoxicity activity against human HaCaT cells assessed as reduction in cell viability after 72 hrs by MTT assay; format: cell-based
[6] = tested on: A549; test: Cytotoxicity activity against human A549 cells assessed as reduction in cell viability after 72 hrs by MTT assay; format: cell-based; settings: A549, 72 h
[7] = tested on: Proteus vulgaris; test: Antibacterial activity against Proteus vulgaris NCTC 4635 after 18 hrs by CLSI disc diffusion method; format: functional; settings: NCTC 4635, 18 h
[8] = tested on: Escherichia coli; test: Antibacterial activity against Escherichia coli ML 17 after 18 hrs by CLSI disc diffusion method; format: functional; settings: ML 17, 18 h
[9] = tested on: Escherichia coli; test: Antibacterial activity against Escherichia coli ML 5 after 18 hrs by CLSI disc diffusion method; format: functional; settings: ML 5, 18 h
[10] = tested on: Pseudomonas aeruginosa; test: Antibacterial activity against Pseudomonas aeruginosa ATCC 27853 after 18 hrs by CLSI disc diffusion method; format: functional; settings: ATCC 27853, 18 h
[11] = tested on: Staphylococcus aureus; test: Antibacterial activity against Staphylococcus aureus 537 after 18 hrs by CLSI disc diffusion method; format: functional; settings: Staphylococcus aureus, 537, 18 h
[12] = tested on: Staphylococcus epidermidis; test: Antibacterial activity against Staphylococcus epidermidis 511 after 18 hrs by CLSI disc diffusion method; format: functional; settings: Staphylococcus epidermidis, 511, 18 h
[13] = tested on: Staphylococcus epidermidis; test: Antibacterial activity against Staphylococcus epidermidis ATCC 12228 after 18 hrs by CLSI disc diffusion method; format: functional; settings: ATCC 12228, 18 h
[14] = tested on: Staphylococcus aureus; test: Antibacterial activity against Staphylococcus aureus NCTC 4163 after 18 hrs by CLSI disc diffusion method; format: functional; settings: NCTC 4163, 18 h
[15] = tested on: Escherichia coli; test: Antibacterial activity against Escherichia coli ML 8 after 18 hrs by CLSI disc diffusion method; format: functional; settings: ML 8, 18 h
[16] = tested on: Staphylococcus epidermidis; test: Antibacterial activity against Staphylococcus epidermidis 431 after 18 hrs by CLSI disc diffusion method; format: functional; settings: Staphylococcus epidermidis, 431, 18 h
[17] = tested on: Micrococcus luteus; test: Antibacterial activity against Micrococcus luteus ATCC 9341 after 18 hrs by CLSI disc diffusion method; format: functional; settings: ATCC 9341, 18 h
[18] = tested on: Pseudomonas aeruginosa; test: Antibacterial activity against Pseudomonas aeruginosa 31m after 18 hrs by CLSI disc diffusion method; format: functional
[19] = tested on: Escherichia coli; test: Antibacterial activity against Escherichia coli ML 15 after 18 hrs by CLSI disc diffusion method; format: functional; settings: ML 15, 18 h
[20] = tested on: Staphylococcus aureus; test: Antibacterial activity against Staphylococcus aureus 572 after 18 hrs by CLSI disc diffusion method; format: functional; settings: Staphylococcus aureus, 572, 18 h
[21] = tested on: Staphylococcus aureus; test: Antibacterial activity against Staphylococcus aureus 497 after 18 hrs by CLSI disc diffusion method; format: functional; settings: Staphylococcus aureus, 497, 18 h
[22] = tested on: Staphylococcus aureus; test: Antibacterial activity against Staphylococcus aureus 495 after 18 hrs by CLSI disc diffusion method; format: functional; settings: Staphylococcus aureus, 495, 18 h
[23] = tested on: Staphylococcus epidermidis; test: Antibacterial activity against Staphylococcus epidermidis 423 after 18 hrs by CLSI disc diffusion method; format: functional; settings: Staphylococcus epidermidis, 423, 18 h
[24] = tested on: Pseudomonas aeruginosa; test: Antibacterial activity against Pseudomonas aeruginosa 7m after 18 hrs by CLSI disc diffusion method; format: functional
[25] = tested on: Pseudomonas aeruginosa; test: Antibacterial activity against Pseudomonas aeruginosa 6m after 18 hrs by CLSI disc diffusion method; format: functional
[26] = tested on: Staphylococcus epidermidis; test: Antibacterial activity against Staphylococcus epidermidis 469 after 18 hrs by CLSI disc diffusion method; format: functional; settings: Staphylococcus epidermidis, 469, 18 h
[27] = tested on: Enterococcus hirae; test: Antibacterial activity against Enterococcus hirae ATCC 10541 after 18 hrs by CLSI disc diffusion method; format: functional; settings: ATCC 10541, 18 h
[28] = tested on: Escherichia coli; test: Antibacterial activity against Escherichia coli ML 9 after 18 hrs by CLSI disc diffusion method; format: functional; settings: ML 9, 18 h
[29] = tested on: Staphylococcus epidermidis; test: Antibacterial activity against Staphylococcus epidermidis 471 after 18 hrs by CLSI disc diffusion method; format: functional; settings: Staphylococcus epidermidis, 471, 18 h
[30] = tested on: Pseudomonas aeruginosa; test: Antibacterial activity against Pseudomonas aeruginosa 16m after 18 hrs by CLSI disc diffusion method; format: functional
[31] = Selectivity index, ratio of IC50 for human HaCaT cells to MIC for Bordetella bronchiseptica ATCC 4617; format: toxicity; settings: read-out: Selectivity Index
[32] = tested on: Pseudomonas aeruginosa; test: Antibacterial activity against Pseudomonas aeruginosa ATCC 15442 after 18 hrs by CLSI disc diffusion method; format: functional; settings: ATCC 15442, 18 h
[33] = Inhibition of Staphylococcus aureus DNA topoisomerase 4 using Kinetoplast DNA as substrate after 30 mins by ethidium bromide staining based agarose gel electrophoresis method
[34] = tested on: Staphylococcus aureus; test: Antibacterial activity against Staphylococcus aureus 586 after 18 hrs by CLSI disc diffusion method; format: functional; settings: Staphylococcus aureus, 586, 18 h
[35] = tested on: Staphylococcus aureus; test: Antibacterial activity against Staphylococcus aureus 498 after 18 hrs by CLSI disc diffusion method; format: functional; settings: Staphylococcus aureus, 498, 18 h
[36] = tested on: Staphylococcus aureus; test: Antibacterial activity against Staphylococcus aureus ATCC 6538 after 18 hrs by CLSI disc diffusion method; format: functional; settings: ATCC 6538, 18 h
[37] = tested on: Pseudomonas aeruginosa; test: Antibacterial activity against Pseudomonas aeruginosa 12m after 18 hrs by CLSI disc diffusion method; format: functional
[38] = Selectivity index, ratio of IC50 for human HaCaT cells to MIC for Micrococcus luteus ATCC 10240; format: toxicity; settings: read-out: Selectivity Index
[39] = tested on: Pseudomonas aeruginosa; test: Antibacterial activity against Pseudomonas aeruginosa 11m after 18 hrs by CLSI disc diffusion method; format: functional
[40] = tested on: Escherichia coli; test: Antibacterial activity against Escherichia coli ML 6 after 18 hrs by CLSI disc diffusion method; format: functional; settings: ML 6, 18 h
[41] = Selectivity index, ratio of IC50 for human HaCaT cells to MIC for Staphylococcus aureus NCTC 4163; format: toxicity; settings: read-out: Selectivity Index
[42] = tested on: Enterococcus faecalis; test: Antibacterial activity against Enterococcus faecalis ATCC 29212 after 18 hrs by CLSI disc diffusion method; format: functional; settings: ATCC 29212, 18 h
[43] = tested on: Staphylococcus epidermidis; test: Antibacterial activity against Staphylococcus epidermidis 433 after 18 hrs by CLSI disc diffusion method; format: functional; settings: Staphylococcus epidermidis, 433, 18 h
[44] = Selectivity index, ratio of IC50 for human HaCaT cells to MIC for Bacillus subtilis ATCC 6633; format: toxicity; settings: read-out: Selectivity Index
[45] = tested on: Staphylococcus epidermidis; test: Antibacterial activity against Staphylococcus epidermidis 510 after 18 hrs by CLSI disc diffusion method; format: functional; settings: Staphylococcus epidermidis, 510, 18 h
[46] = tested on: Bacillus cereus; test: Antibacterial activity against Bacillus cereus ATCC 11778 after 18 hrs by CLSI disc diffusion method; format: functional; settings: ATCC 11778, 18 h
[47] = tested on: Staphylococcus epidermidis; test: Antibacterial activity against Staphylococcus epidermidis 432 after 18 hrs by CLSI disc diffusion method; format: functional; settings: Staphylococcus epidermidis, 432, 18 h
[48] = tested on: Staphylococcus aureus; test: Antibacterial activity against Staphylococcus aureus ATCC 25923 after 18 hrs by CLSI disc diffusion method; format: functional; settings: ATCC 25923, 18 h
[49] = tested on: Bacillus spizizenii; test: Antibacterial activity against Bacillus subtilis ATCC 6633 after 18 hrs by CLSI disc diffusion method; format: functional; settings: ATCC 6633, 18 h
[50] = tested on: Escherichia coli; test: Antibacterial activity against Escherichia coli ML 16 after 18 hrs by CLSI disc diffusion method; format: functional; settings: ML 16, 18 h
[51] = Selectivity index, ratio of IC50 for human HaCaT cells to MIC for Enterococcus hirae ATCC 10541; format: toxicity; settings: read-out: Selectivity Index
[52] = tested on: Staphylococcus epidermidis; test: Antibacterial activity against Staphylococcus epidermidis ATCC 35984 after 18 hrs by CLSI […] method; format: functional; settings: ATCC 35984, 18 h
[53] = tested on: Pseudomonas aeruginosa; test: Antibacterial activity against Pseudomonas aeruginosa 10m after 18 hrs by CLSI disc diffusion method; format: functional
[54] = tested on: Micrococcus luteus; test: Antibacterial activity against Micrococcus luteus ATCC 10240 after 18 hrs by CLSI disc diffusion method; format: functional; settings: ATCC 10240, 18 h
[55] = tested on: Escherichia coli; test: Antibacterial activity against Escherichia coli ML 12 after 18 hrs by CLSI disc diffusion method; format: functional; settings: ML 12, 18 h
[56] = tested on: Escherichia coli; test: Antibacterial activity against Escherichia coli ATCC 10538 after 18 hrs by CLSI disc diffusion method; format: functional; settings: ATCC 10538, 18 h
[57] = tested on: Pseudomonas aeruginosa; test: Antibacterial activity against Pseudomonas aeruginosa 18m after 18 hrs by CLSI disc diffusion method; format: functional
[58] = Selectivity index, ratio of IC50 for human HaCaT cells to MIC for Escherichia coli ATCC 10538; format: toxicity; settings: read-out: Selectivity Index
[59] = target: DNA gyrase (Staphylococcus aureus, UniProt P0A0K8+P20831); test: Inhibition of Staphylococcus aureus DNA gyrase supercoiling activity using pBR322 DNA as substrate after 30 mins by ethidium bromide staining based agarose gel electrophoresis method; format: protein-complex assay
Sequence of DNA gyrase (P0A0K8 whole entry): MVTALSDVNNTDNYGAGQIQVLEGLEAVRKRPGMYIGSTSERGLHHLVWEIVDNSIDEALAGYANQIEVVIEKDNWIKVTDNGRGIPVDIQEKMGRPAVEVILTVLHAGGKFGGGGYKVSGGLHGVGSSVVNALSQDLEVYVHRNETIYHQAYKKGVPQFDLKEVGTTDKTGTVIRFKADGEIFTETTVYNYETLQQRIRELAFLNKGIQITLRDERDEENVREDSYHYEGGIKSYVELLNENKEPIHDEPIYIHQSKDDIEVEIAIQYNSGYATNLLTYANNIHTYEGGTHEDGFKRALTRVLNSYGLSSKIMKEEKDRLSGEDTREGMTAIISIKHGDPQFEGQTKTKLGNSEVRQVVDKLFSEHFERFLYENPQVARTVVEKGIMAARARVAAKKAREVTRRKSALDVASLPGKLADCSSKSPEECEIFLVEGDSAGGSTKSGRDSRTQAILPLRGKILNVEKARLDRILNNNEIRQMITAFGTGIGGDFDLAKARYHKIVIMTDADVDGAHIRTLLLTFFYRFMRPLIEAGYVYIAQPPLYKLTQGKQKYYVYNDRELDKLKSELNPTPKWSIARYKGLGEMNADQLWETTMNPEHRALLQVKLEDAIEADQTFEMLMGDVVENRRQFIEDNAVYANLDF
Sequence of DNA gyrase (P20831 whole entry): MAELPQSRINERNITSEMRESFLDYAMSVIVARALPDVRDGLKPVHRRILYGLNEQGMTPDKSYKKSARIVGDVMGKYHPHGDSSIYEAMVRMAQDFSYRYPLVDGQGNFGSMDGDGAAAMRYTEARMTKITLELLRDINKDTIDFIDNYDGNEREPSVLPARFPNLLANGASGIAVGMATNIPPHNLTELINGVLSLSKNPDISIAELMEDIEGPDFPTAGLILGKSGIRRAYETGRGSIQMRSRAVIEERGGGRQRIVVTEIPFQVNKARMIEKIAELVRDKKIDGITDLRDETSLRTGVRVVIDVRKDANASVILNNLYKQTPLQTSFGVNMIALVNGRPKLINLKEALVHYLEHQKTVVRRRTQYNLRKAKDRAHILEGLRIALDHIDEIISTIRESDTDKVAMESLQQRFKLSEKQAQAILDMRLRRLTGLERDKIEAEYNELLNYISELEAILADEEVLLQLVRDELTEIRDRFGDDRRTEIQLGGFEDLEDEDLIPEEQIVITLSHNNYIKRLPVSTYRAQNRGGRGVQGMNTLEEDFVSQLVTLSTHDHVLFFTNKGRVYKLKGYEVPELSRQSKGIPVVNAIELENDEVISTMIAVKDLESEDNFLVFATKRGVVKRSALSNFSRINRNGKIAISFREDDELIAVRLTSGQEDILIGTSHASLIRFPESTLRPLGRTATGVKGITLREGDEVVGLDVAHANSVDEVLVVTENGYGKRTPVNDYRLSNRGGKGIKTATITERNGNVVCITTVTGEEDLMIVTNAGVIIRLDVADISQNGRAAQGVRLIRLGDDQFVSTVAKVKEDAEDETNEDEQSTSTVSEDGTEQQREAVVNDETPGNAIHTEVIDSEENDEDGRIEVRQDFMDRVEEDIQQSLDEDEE

Fc1ccc(-n2nnnc2NCc2ccco2)cc1Cl
MIC [1]: 7 µM (≈ 2.06 µg/mL) | MIC [2]: 14 µM (≈ 4.11 µg/mL) | selectivity ratio [3]: 84 | MIC [4]: 7 µM (≈ 2.06 µg/mL) | IC50 [5]: 84 µM | IC50 [6]: 80 µM | MIC [7]: 1 µM (≈ 0.294 µg/mL) | MIC [8]: 7 µM (≈ 2.06 µg/mL) | MIC [9]: 7 µM (≈ 2.06 µg/mL) | MIC [10]: 7 µM (≈ 2.06 µg/mL) | MIC [11]: 7 µM (≈ 2.06 µg/mL) | MIC [12]: 14 µM (≈ 4.11 µg/mL) | MIC [13]: 7 µM (≈ 2.06 µg/mL) | MIC [14]: 7 µM (≈ 2.06 µg/mL) | MIC [15]: 7 µM (≈ 2.06 µg/mL) | MIC [16]: 7 µM (≈ 2.06 µg/mL) | MIC [17]: 1 µM (≈ 0.294 µg/mL) | MIC [18]: 7 µM (≈ 2.06 µg/mL) | MIC [19]: 54 µM (≈ 15.9 µg/mL) | MIC [20]: 14 µM (≈ 4.11 µg/mL) | MIC [21]: 14 µM (≈ 4.11 µg/mL) | MIC [22]: 7 µM (≈ 2.06 µg/mL) | MIC [23]: 14 µM (≈ 4.11 µg/mL) | MIC [24]: 7 µM (≈ 2.06 µg/mL) | MIC [25]: 7 µM (≈ 2.06 µg/mL) | MIC [26]: 7 µM (≈ 2.06 µg/mL) | MIC [27]: 14 µM (≈ 4.11 µg/mL) | MIC [28]: 14 µM (≈ 4.11 µg/mL) | MIC [29]: 7 µM (≈ 2.06 µg/mL) | MIC [30]: 14 µM (≈ 4.11 µg/mL) | selectivity ratio [31]: 12 | MIC [32]: 218 µM (≈ 64 µg/mL) | IC50 [33]: 2.6 µg/mL (≈ 8.85 µM) | MIC [34]: 14 µM (≈ 4.11 µg/mL) | MIC [35]: 7 µM (≈ 2.06 µg/mL) | MIC [36]: 7 µM (≈ 2.06 µg/mL) | MIC [37]: 7 µM (≈ 2.06 µg/mL) | selectivity ratio [38]: 84 | MIC [39]: 27 µM (≈ 7.93 µg/mL) | MIC [40]: 54 µM (≈ 15.9 µg/mL) | selectivity ratio [41]: 12 | MIC [42]: 7 µM (≈ 2.06 µg/mL) | MIC [43]: 14 µM (≈ 4.11 µg/mL) | selectivity ratio [44]: 28 | MIC [45]: 14 µM (≈ 4.11 µg/mL) | MIC [46]: 3 µM (≈ 0.881 µg/mL) | MIC [47]: 7 µM (≈ 2.06 µg/mL) | MIC [48]: 7 µM (≈ 2.06 µg/mL) | MIC [49]: 3 µM (≈ 0.881 µg/mL) | MIC [50]: 7 µM (≈ 2.06 µg/mL) | selectivity ratio [51]: 6 | MIC [52]: 3 µM (≈ 0.881 µg/mL) | MIC [53]: 27 µM (≈ 7.93 µg/mL) | MIC [54]: 1 µM (≈ 0.294 µg/mL) | MIC [55]: 54 µM (≈ 15.9 µg/mL) | MIC [56]: 7 µM (≈ 2.06 µg/mL) | MIC [57]: 14 µM (≈ 4.11 µg/mL) | selectivity ratio [58]: 12 | IC50 [59]: 3.06 µM

O=C(O)c1cn(C2CC2)c2cc(N3CCNCC3)c(F)cc2c1=O [CIPROFLOXACIN]
IC50 [33]: 1.7 µg/mL (≈ 5.13 µM)

From ChEMBL document CHEMBL4152339, “Design and synthesis of novel 1H-tetrazol-5-amine based potent antimicrobial agents: DNA topoisomerase IV and gyrase affinity evaluation supported by molecular docking studies” (Eur J Med Chem, 2018)
